In PubChem BioAssay AID296 (DTP/NCI, 2004):
Where “and” joins values, the source holds several entries; their conditions need not be identical. Equal entries are not always repeated. Inconclusive results are not listed.

Tested on: MX-1 breast xenograft, nude mice, tumor weight T/C
Assay: NCI In Vivo Anticancer Drug Screen. Data for tumor model Human Mammary Carcinoma MX-1 Xenograft (intrarenal inoculation) in NU/NU Swiss (nude) mice
Conditions: endpoint: mean tumor weight change, higher = larger tumour
Method in brief: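 Activity is given as a ratio, with each measurement in the compound-treated arm divided by the matching measurement in vehicle-dosed controls. Tumour size or survival serves as the measured parameter.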

[1] = dose: 50.0 mg/kg/injection, schedule: Q04DX003 (sc), vehicle: Klucel (hydroxypropylcellulose) (HPC)
[2] = dose: 200.0 mg/kg/injection, schedule: Q04DX003 (sc), vehicle: Klucel (hydroxypropylcellulose) (HPC)

`C=C(C)[C@H]1CN[C@H](C(=O)O)[C@H]1CC(=O)O` was tested, and the T/C (dose: 20.0 mg/kg/injection, schedule: Q04DX003 (sc), vehicle: suspension in saline) was 75 % of control and the T/C (dose: 40.0 mg/kg/injection, schedule: Q04DX003 (sc), vehicle: suspension in saline) was 36 % of control.

With `CCCCCC[C@@H](O)C/C=C\CCCCCCCC(=O)OCCO` the T/C (dose: 300.0 mg/kg/injection, schedule: Q04DX003 (sc), vehicle: saline) was 87 % of control, the T/C (dose: 600.0 mg/kg/injection, schedule: Q04DX003 (sc), vehicle: saline) was 104 % of control and the T/C (dose: 1200.0 mg/kg/injection, schedule: Q04DX003 (sc), vehicle: saline) was 96 % of control. For the same molecule, the T/C (dose: 2400.0 mg/kg/injection, schedule: Q04DX003 (sc), vehicle: saline) was 103 % of control.

In the case of `Ic1ncnc2c1ncn2C1CCCO1` (stereo unspecified), the T/C [1] is reported as 84 % of control, the T/C [2] is reported as 97 % of control and the T/C (dose: 400.0 mg/kg/injection, schedule: Q04DX003 (sc), vehicle: Klucel (hydroxypropylcellulose) (HPC)) is reported as 123 % of control.

For `CN(C(=S)S(=O)(=O)C12CC3CC(CC(C3)C1)C2)c1ccccc1`, the T/C (dose: 800.0 mg/kg/injection, schedule: Q04DX003 (sc), vehicle: Klucel (hydroxypropylcellulose) (HPC)) was 204 % of control.

For `C[C@]12CC[C@@H]3c4ccc(O)cc4CC[C@H]3[C@@H]1CC[C@@H]2O`, the T/C (dose: 150.0 mg/kg/injection, schedule: Q04DX003 (sc), vehicle: Klucel (hydroxypropylcellulose) (HPC)) was 101 % of control, the T/C (dose: 300.0 mg/kg/injection, schedule: Q04DX003 (sc), vehicle: Klucel (hydroxypropylcellulose) (HPC)) was 101 % of control and the T/C (dose: 600.0 mg/kg/injection, schedule: Q04DX003 (sc), vehicle: Klucel (hydroxypropylcellulose) (HPC)) was 101 % of control. The T/C (dose: 1200.0 mg/kg/injection, schedule: Q04DX003 (sc), vehicle: Klucel (hydroxypropylcellulose) (HPC)) was 104 % of control.

With `CC[C@@]1(O)C[C@H](OC2CC(N(C)C)C(OC3CC(O)C(OC4CCC(=O)C(C)O4)C(C)O3)C(C)O2)c2c(cc3c(c2O)C(=O)c2c(O)cccc2C3=O)[C@H]1C(=O)OC` (stereo partly specified) the T/C (dose: 0.25 mg/kg/injection, schedule: Q01DX010 (sc), vehicle: water) was 91 % of control, the T/C (dose: 0.5 mg/kg/injection, schedule: Q01DX010 (ip), vehicle: water) was 74 % of control and 78 % of control and the T/C (dose: 0.5 mg/kg/injection, schedule: Q01DX010 (sc), vehicle: water) was 113 % of control. The T/C (dose: 1.0 mg/kg/injection, schedule: Q01DX010 (sc), vehicle: water) was 35 % of control, the T/C (dose: 2.0 mg/kg/injection, schedule: Q01DX010 (ip), vehicle: water) was 7 % of control and the T/C (dose: 4.0 mg/kg/injection, schedule: Q01DX010 (sc), vehicle: water) was 65 % of control.

With `COc1c(CNC(=O)CCl)cc2[nH]c(C)cc2c1CNC(=O)CCl` the T/C (dose: 250.0 mg/kg/injection, schedule: Q04DX003 (sc), vehicle: Klucel (hydroxypropylcellulose) (HPC)) was 100 % of control, the T/C (dose: 1000.0 mg/kg/injection, schedule: Q04DX003 (sc), vehicle: Klucel (hydroxypropylcellulose) (HPC)) was 55 % of control and the T/C (dose: 2000.0 mg/kg/injection, schedule: Q04DX003 (sc), vehicle: Klucel (hydroxypropylcellulose) (HPC)) was 58 % of control.

In the case of `Cc1cc(NCCN(C(C)C)C(C)C)nc(/N=C(\N)Nc2ccc(Cl)c(C(F)(F)F)c2)n1`, the T/C (dose: 80.0 mg/kg/injection, schedule: Q04DX003 (sc), vehicle: Klucel (hydroxypropylcellulose) (HPC)) is reported as 64 % of control, the T/C (dose: 160.0 mg/kg/injection, schedule: Q04DX003 (sc), vehicle: Klucel (hydroxypropylcellulose) (HPC)) is reported as 62 % of control and the T/C (dose: 320.0 mg/kg/injection, schedule: Q04DX003 (sc), vehicle: Klucel (hydroxypropylcellulose) (HPC)) is reported as 81 % of control.

With `CN1N=C(N)c2cn(C3OC(COP(=O)(O)O)C(O)C3O)c3ncnc1c23` (stereo unspecified) the T/C (dose: 25.0 mg/kg/injection, schedule: Q01DX010 (sc), vehicle: water) was -92 % of control and -76 % of control and the T/C (dose: 50.0 mg/kg/injection, schedule: Q01DX010 (sc), vehicle: water) was -91 % of control and -75 % of control.

In the case of `COC(C(=O)C(O)C(C)O)C1Cc2cc3cc(OC4CC(OC(C)=O)C(OC5CC(O)C(OC)C(C)O5)C(C)O4)cc(O)c3c(O)c2C(=O)C1OC1CC(OC2CC(OC3CC(C)(O)C(OC(=O)C(C)C)C(C)O3)C(O)C(C)O2)C(O)C(C)O1` (stereo unspecified), the T/C (dose: 1.0 mg/kg/injection, schedule: Q04DX003 (sc), vehicle: saline with Tween-80) is reported as 47 % of control, the T/C (dose: 1.5 mg/kg/injection, schedule: Q04DX003 (sc), vehicle: saline with Tween-80) is reported as 11 % of control and 26 % of control and 28 % of control and the T/C (dose: 2.0 mg/kg/injection, schedule: Q04DX003 (sc), vehicle: saline with Tween-80) is reported as 49 % of control. For the same molecule, the T/C (dose: 4.0 mg/kg/injection, schedule: Q04DX003 (sc), vehicle: saline with Tween-80) was 13 % of control and the T/C (dose: 8.0 mg/kg/injection, schedule: Q04DX003 (sc), vehicle: saline with Tween-80) was -79 % of control.

For `CSc1cc(C)[o+]c(C)c1`, the T/C (dose: 25.0 mg/kg/injection, schedule: Q04DX003 (sc), vehicle: Klucel (hydroxypropylcellulose) (HPC)) was 76 % of control, the T/C [1] was 68 % of control and the T/C (dose: 100.0 mg/kg/injection, schedule: Q04DX003 (sc), vehicle: Klucel (hydroxypropylcellulose) (HPC)) was 54 % of control. For the same molecule, the T/C [2] was 36 % of control.

In the case of `COc1ccc2nc3cc(Cl)ccc3c(NCCNCCNCCNc3c4ccc(Cl)cc4nc4ccc(OC)cc34)c2c1`, the T/C (dose: 25.0 mg/kg/injection, schedule: Q01DX010 (sc), vehicle: saline with Tween-80) is reported as 74 % of control, the T/C (dose: 50.0 mg/kg/injection, schedule: Q01DX010 (sc), vehicle: saline with Tween-80) is reported as 78 % of control and the T/C (dose: 100.0 mg/kg/injection, schedule: Q01DX010 (sc), vehicle: saline with Tween-80) is reported as 115 % of control. The T/C (dose: 200.0 mg/kg/injection, schedule: Q01DX010 (sc), vehicle: saline with Tween-80) was 80 % of control.
